Counter-ions that a name gives are not always drawn.
How the values were obtained:
M1 muscarinic receptors = target: T1, M1 muscarinic receptors (Homo sapiens, UniProt P11229); assay: Muscarinic receptor binding at M1 receptors; details: for affinity for muscarinic receptors: as compared to the parent compound xanomeline; for Ki: Table 3
T1 construct: expressed in transfected cells; host or cells: A9 L cells
T1 sequence (P11229 1-460): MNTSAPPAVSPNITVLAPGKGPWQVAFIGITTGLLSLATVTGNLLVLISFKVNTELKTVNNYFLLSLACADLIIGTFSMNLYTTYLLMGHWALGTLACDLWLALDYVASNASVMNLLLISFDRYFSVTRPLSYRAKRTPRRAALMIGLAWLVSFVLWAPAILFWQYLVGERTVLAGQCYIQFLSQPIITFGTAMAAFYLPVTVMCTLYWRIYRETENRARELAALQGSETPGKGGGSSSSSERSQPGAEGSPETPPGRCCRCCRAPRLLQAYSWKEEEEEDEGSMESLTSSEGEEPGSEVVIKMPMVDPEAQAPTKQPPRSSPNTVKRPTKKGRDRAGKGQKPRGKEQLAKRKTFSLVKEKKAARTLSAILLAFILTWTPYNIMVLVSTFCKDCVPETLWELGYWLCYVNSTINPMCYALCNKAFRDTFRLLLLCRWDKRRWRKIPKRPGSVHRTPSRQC
Description: (§1) The compounds of Formula III incorporate hydrogen bonding elements as ester isosteres (i.e., alcohols, […], 1,2,5-thiadiazoles) at the end of an alkyl or alkyloxy linking group as shown below. The compounds lack a second tetrahydropyridine moiety.

[1] = target: T2, M1 muscarinic receptors expressed in A9 L cells (Homo sapiens, UniProt P11229); assay: Phosphoinositide (PI) metabolism at M1 muscarinic receptors expressed in A9 L cells; type: cell-based; details: for EC50 / Phosphoinositide metabolism Smax: A9 L cells, Table 3
T2 construct: expressed in transfected cells; host or cells: A9 L cells
T2 sequence (P11229 1-460): T1 sequence (P11229 1-460)
Description: as §1

Row | SMILES | melting point [°C] | Ki (M1 muscarinic receptors) [nM] | EC50 [1] [nM] | Phosphoinositide metabolism Smax [1] [%] | also measured
1 | CC(=O)OCCOCCOCCOCCOc1nsnc1C1=CCCN(C)C1 (as salt: hydrochloride) [CDD-0303-A, Tetra(ethylene glycol) [3-(1-methyl-1,2,5,6-tetrahydropyrid-3-yl)-1,2,5-thiadiazol-4-yl] ether acetate hydrochloride] | 55 to 55.5 | – | – | – | –
2 | CCOCCOCCOCCOCCOc1nsnc1C1=CCCN(C)C1 (as salt: hydrochloride) [CDD-0301-A, Tetra(ethylene glycol) ethyl [3-1-methyl-1,2,5,6-tetrahydropyrid-3-yl)-1,2,5-thiadiazol-4-yl] ether hydrochloride] | 64.5 to 66 | – | – | – | –
3 | CN1CCC=C(c2nsnc2OCCOCCOCCOCCOc2nsnc2C2=CCCN(C)C2)C1 [(CH2CH2)4O3, 2,2′-bis-{[3-(1-methyl-1,2,5,6-tetrahydropyrid-3-yl)-1,2,5-thiadiazol-4-yloxy]ethyloxy}-diethyl ether] | – | – | – | – | affinity for muscarinic receptors (M1 muscarinic receptors): very high affinity; Smax ([1]; PI metabolism, full dose-response curves, Table 2): 250 ± 36%
4 | CN1CCC=C(c2nsnc2OCCCCCCCCCCCCO)C1 (as salt: hydrochloride) [CDD-0297-A, 12-[3-(1-Methyl-1,2,5,6-tetrahydropyrid-3-yl)-1,2,5-thiadiazol-4-yloxy]-1-dodecanolhydrochloride] | 97 to 98 | – | – | – | –
5 | CN1CCC=C(c2nsnc2OCCOCCOCCOCCO)C1 [CDD-0300-A, Tetra(ethylene glycol) mono[3-(1-methyl-1,2,5,6-tetrahydropyrid-3-yl)-1,2,5-thiadiazol-4-yl] ether hydrochloride] | – | 150 ± 42 | 710 | 240 ± 64 | –
6 | CC(=O)OCCOCCOCCOCCOc1nsnc1C1=CCCN(C)C1 [CDD-0303-A, Tetra(ethylene glycol) [3-(1-methyl-1,2,5,6-tetrahydropyrid-3-yl)-1,2,5-thiadiazol-4-yl] ether acetate hydrochloride] | – | 280 ± 130 | – | – | –
7 | CC(=O)OCCCCCCCCCCCCOc1nsnc1C1=CCCN(C)C1 [CDD-0299-A, 12-[3-(1-Methyl-1,2,5,6-tetrahydropyrid-3-yl)-1,2,5-thiadiazol-4-yloxy]-1-dodecyl acetate hydrochloride] | – | 16 ± 13 | 3400 | 280 ± 17 | –
8 | CN1CCC=C(c2nsnc2OCCCCCCCCCCCCOc2nsnc2C2=CCCN(C)C2)C1 [(CH2)12, 1,12-bis-[3-(1-methyl-1,2,5,6-tetrahydropyrid-3-yl)-1,2,5-thiadiazol-4-yloxy]-dodecane] | – | – | – | – | affinity for muscarinic receptors (M1 muscarinic receptors): very high affinity

Further lines, with some results ahead:

Row | melting point [°C] | Ki (M1 muscarinic receptors) [nM] | EC50 [1] [nM] | Phosphoinositide metabolism Smax [1] [%] | SMILES | also measured
9 | – | 38 ± 23 | 64 | 600 ± 56 | COc1nsnc1OCCOCCOCCOCCOc1nsnc1C1=CCCN(C)C1 [CDD-0304-A, Tetra(ethyleneglycol)(4-methoxy-1,2,5-thiadiazol-3-yl)[3-(1-methyl-1,2,5,6-tetrahydropyrid-3-yl)-1,2,5-thiazdiazol-4-yl] ether hydrochloride] | –
10 | – | 16 ± 3.1 | 2600 | 250 ± 28 | CN1CCC=C(c2nsnc2OCCCCCCCCCCCCO)C1 [CDD-0297-A, 12-[3-(1-Methyl-1,2,5,6-tetrahydropyrid-3-yl)-1,2,5-thiadiazol-4-yloxy]-1-dodecanolhydrochloride] | –
11 | – | 570 ± 220 | 29000 | 420 ± 220 | CCOCCOCCOCCOCCOc1nsnc1C1=CCCN(C)C1 [CDD-0301-A, Tetra(ethylene glycol) ethyl [3-1-methyl-1,2,5,6-tetrahydropyrid-3-yl)-1,2,5-thiadiazol-4-yl] ether hydrochloride] | –
12 | 85 to 86 | – | – | – | CC(=O)OCCCCCCCCCCCCOc1nsnc1C1=CCCN(C)C1 (as salt: hydrochloride) [CDD-0299-A, 12-[3-(1-Methyl-1,2,5,6-tetrahydropyrid-3-yl)-1,2,5-thiadiazol-4-yloxy]-1-dodecyl acetate hydrochloride] | –

Reference: patent US6376675B2, “Muscarinic receptor agonists” (The University of Toledo, priority 1999, dated 2002)
